For 44 compounds, IC50 results are on record in patent publication US20090082368A1, “METHODS OF MODULATING NEUROTROPHIN-MEDIATED ACTIVITY” (PainCeptor Pharma Corporation, priority 2007, published 2009).

The subject of assay [1] is NGF-induced ERK phosphorylation. Nature of the assay: Inhibition of NGF-induced Erk 1/2 phosphorylation (pERK). The assay is classed as cell-based. The conditions noted are these: Rattus norvegicus, Table 2. The procedure:
This assay is useful for establishing that the compounds of the invention are functional NGF antagonists, not receptor agonists (an agonist could conceivably block NGF binding but actually activate the receptor). Erk 1/2 is a kinase activated down stream of TrkA and is a well studied member of the NGF-induced signal transduction cascade.
PC12 cells expressing TrkA and p75 are acutely exposed to 1 ng/mL NGF (15 min; 37° C.; 5% CO2) that is pre-incubated (30 min; room temperature) with or without the compounds. Cells are lysed in Laemmli sample buffer (for SDS-PAGE) or a lysis buffer containing Triton X-100 (for ELISA). Following SDS-PAGE, proteins are electroblotted onto nitrocellulose and immunoprobed for phosphorylated Erk 1 and 2. Blocking and primary antibody incubations of immunoblots are performed in Tris-buffered saline-Tween (10 mM Tris, pH 8.0, 150 mM NaCl, and 0.2% Tween 20) supplemented with 5% (w/v) bovine serum albumin (BSA); secondary antibody incubations are performed in 5% (w/v) dried skim milk powder. Immunoreactive bands are detected by chemiluminescence.
A quantitative method to detect phosphorylated Erk 1/2 by immunofluorescence is also used. Neuroscreen-1 cells are grown in a 96 well plate. NGF preincubated with or without the compounds for 30 minutes, is added to the cells for 5 minutes at 37° C. Cells are then fixed and stained with an antibody against phosphor-ERK 1/2. A fluorescently labeled secondary antibody is used to show the presence of phosphorylated ERK 1/2. Quantitative results are generated by photographing the wells with light of the appropriate wavelength, followed by software based image analysis.

In assay [2] the test system is PC12 cells. Nature of the assay: Inhibition of NGF-induced neurite outgrowth. The assay is classed as cell-based. The conditions noted are these: Rattus norvegicus, PC-12, 96 h, Table 3, 4 days exposure to NGF. Here is the method: This assay is run as a further functional marker of NGF antagonism and takes advantage of the differentiation of PC12 cells (neurite outgrowth) induced by NGF. Cultures of PC12 cells are grown on Terasaki plates pre-coated with poly-D-lysine. Cells are exposed to NGF (1-50 (preferably 5) ng/ml) to induce neurite outgrowth as described elsewhere [LA Greene & AS Tischler, Establishment of a noradrenergic clonal line of rat adrenal pheochromocytoma cells which respond to nerve growth factor, Proc Natl Acad Sci USA. 1976 July; 73(7): 2424-2428]. In addition to NGF, cells are exposed to varying concentration of the compounds or vehicle. Following 4 days of exposure to NGF in the presence or absence of compound, neurite outgrowth is quantified. A neurite is scored if its caliber from origin to terminal is approximately the same and the length is equal to or greater than 1.5 the cell body diameter. The number of neurite bearing cells per total number of viable cells is calculated for each condition; the number of cells with neurites in the presence of NGF (without compound exposure) is considered to represent maximal (100%) outgrowth, to which the inhibitory effect of compounds of the invention on NGF-induced outgrowth is compared.

Assay [3] concerns NGF receptors on PC12 cells (TrkA+p75). Put plainly: NGF binding (125I-NGF) using PC12 cells. Set-up: species or system rat. Here is the method:
NGF binding was evaluated using methods familiar to those who are skilled in the art. Briefly, cells expressing one or both NGF receptors (PC12: TrkA+p75; A875: p75 alone; HEK/CHO_trkA: TrkA alone) were harvested by replacing the medium with the cell dissociation buffer (Amersham) and incubating at 37° C. for 15 min. […] For most compounds, multiple dose-response curves were generated.
The IC50 data shown in Tables A-J were acquired using the procedure described herein using PC12 cells.

The mark [4] stands for this setting: Table J (Formula VIII), NGF binding, PC12 cells, read-out: IC50.
[5] abbreviates: Table I (Formula VII), NGF binding, PC12 cells, read-out: IC50.
[6] abbreviates: Table A (Formula Ia), NGF binding, PC12 cells, read-out: IC50.
[7] abbreviates: Table B (Formula Ib), NGF binding, PC12 cells, read-out: IC50.
Setting [8] is: Table 2, read-out: NGF Binding Assay IC50.
Where [9] appears, read: Table 3, read-out: NGF Binding Assay IC50.

pIC50: −log10 of the molar value. Like-named read-outs stand apart in the source and are kept apart here. Some results are limits rather than exact numbers.

For the compound `O=C(O)CCCCCN1C(=O)c2ccc(-c3ccc4c(c3)C(=O)N(CCCCCC(=O)O)C4=O)cc2C1=O` [Compound 19C], the pIC50 (usually the IC50 on a negative log10 scale, so that one unit is a factor of ten) in assay [1] is 5.30 to 7.00.

Take `CCOC(=O)c1cccc(N2Cc3cc(C(=O)O)ccc3C2=O)c1` [Compound 15A]: the negative-log IC50 (pIC50) in assay [1] was 4.82 to 5.30.

As for `O=C(O)c1ccc(Cl)c(N2C(=O)c3ccc4c5c(ccc(c35)C2=O)C(=O)N(c2cc(C(=O)O)ccc2Cl)C4=O)c1` [Compound 3D], the pIC50 in assay [2] is 5.30 to 7.00.

Regarding `O=C(O)CCCCCCCN1C(=O)c2ccc(-c3ccc4c(c3)C(=O)N(CCCCCCCC(=O)O)C4=O)cc2C1=O` [Compound 22C], in assay [1], the negative logarithm of the IC50 (pIC50) is 4.82 to 5.30.

In assay [1], `O=C1c2ccc(-c3ccc4c(c3)C(=O)N(CCCS(=O)(=O)O)C4=O)cc2C(=O)N1CCCS(=O)(=O)O` [Compound 11C] gave a pIC50 of 5.30 to 7.00.

With `O=C(O)CCCN1C(=O)c2cccc3cc([N+](=O)[O-])cc(c23)C1=O` [Compound 27G, 4-(5-Nitro-1,3-dioxo-1H-benzo[de]isoquinolin-2(3H)-yl)butanoic acid], the pIC50 in assay [3] (setting [4]) is more than 5.00.

On to `N#Cc1ccc2c3c(cccc13)C(=O)N(CCCC(=O)O)C2=O` [Compound 34G], for which the pIC50 in assay [3] (setting [4]) is 4.54 to 5.00.

As to `O=C(O)CCCN1C(=O)c2cccc3c(S(=O)(=O)O)ccc(c23)C1=O` [Compound 37G], the pIC50 in assay [3] (setting [4]) was less than 4.30.

In the case of `CN(C)S(=O)(=O)c1ccc2c3c(cccc13)C(=O)N(CCCC(=O)O)C2=O` [Compound 41G], the negative logarithm of the IC50 (pIC50) in assay [3] (setting [4]) was more than 5.00.

On to `O=C(O)CCN1C(=O)c2ccc(-c3ccc4c(c3)C(=O)N(CCC(=O)O)C4=O)cc2C1=O` [Compound 9C], for which the pIC50 in assay [1] is 4.82 to 5.30.

Regarding `O=C(O)CCCN1C(=O)c2ccc(-c3ccc4c(c3)C(=O)N(CCCc3nnn[nH]3)C4=O)cc2C1=O` [Compound 23C], the negative-log IC50 (pIC50) in assay [1] is 5.30 to 7.00.

As for `Nc1cc2c3c(cc(C(=O)O)cc3c1)C(=O)N(CCCC(=O)O)C2=O` [Compound 18G, 8-Amino-2-(3-carboxypropyl)-1,3-dioxo-2,3-dihydro-1H-benzo[de]isoquinoline-5-carboxylic acid], in assay [3] (setting [5]), the pIC50 was more than 5.00.

As to `O=C(O)c1cccc(N2C(=O)c3ccc(C(=O)O)cc3C2=O)c1` [Compound 3], the pIC50 in assay [3] (setting [6]) is less than 4.30.

For the compound `CC(=O)Nc1cc2c3c(cccc3c1)C(=O)N(CCCC(=O)O)C2=O` [Compound 29G], the negative logarithm of the IC50 (pIC50) in assay [3] (setting [4]) is more than 5.00.

Consider `N#Cc1ccc2c(c1)CN(c1cccc(C(=O)O)c1)C2=O` [Compound 8A], for which the pIC50 in assay [3] (setting [7]) was less than 4.30.

In the case of `O=C(O)CCCN1C(=O)c2cccc3cc(-c4cccc(C(=O)O)c4)cc(c23)C1=O` [Compound 45G], in assay [1], the pIC50 is 4.60 to 4.82.

As to `CC(=O)Nc1cc2c3c(cc(C(=O)O)cc3c1)C(=O)N(CCCC(=O)O)C2=O` [Compound 19G, 8-(Acetylamino)-2-(3-carboxypropyl)-1,3-dioxo-2,3-dihydro-1H-benzo[de]isoquinoline-5-carboxylic acid], the negative-log IC50 (pIC50) in assay [3] (setting [8]) is more than 5.00; in assay [3] (setting [5]), more than 5.00; in assay [1] it was 4.82 to 5.30.

In the case of `O=C(O)CCCCN1C(=O)c2ccc(-c3ccc4c(c3)C(=O)N(CCCCC(=O)O)C4=O)cc2C1=O` [Compound 10C], the pIC50 in assay [1] is 5.30 to 7.00.

Take `O=C(O)CCCN1C(=O)c2cccc3cccc(c23)C1=O` [Compound 26G]: the negative-log IC50 (pIC50) in assay [3] (setting [4]) was less than 4.30.

For the compound `Nc1cc2c3c(cccc3c1)C(=O)N(CCCC(=O)O)C2=O` [Compound 28G, 4-(5-Amino-1,3-dioxo-1H-benzo[de]isoquinolin-2(3H)-yl)butanoic acid], in assay [3] (setting [4]), the negative-log IC50 (pIC50) was more than 5.00.

With `O=C(O)CCCN1C(=O)c2cccc3c(Cl)ccc(c23)C1=O` [Compound 38G], the negative-log IC50 (pIC50) in assay [3] (setting [4]) is 4.54 to 5.00.

With `O=C(O)CCCN1C(=O)c2cccc3c(C(=O)c4ccccc4)ccc(c23)C1=O` [Compound 40G], in assay [3] (setting [4]), the negative logarithm of the IC50 (pIC50) is 4.54 to 5.00.

With `Nc1ccc(C(=O)O)cc1N1C(=O)c2ccc3c4c(ccc(c24)C1=O)C(=O)N(C(CCC(=O)O)C(=O)O)C3=O` (stereo not drawn) [Compound 9D], the negative logarithm of the IC50 (pIC50) was 4.82 to 5.30 in assay [1] and 5.30 to 7.00 in assay [2].

As for `N#Cc1cc2c3c(cc(C#N)cc3c1)C(=O)N(CCCC(=O)O)C2=O` [Compound 20G], in assay [3] (setting [5]), the pIC50 is more than 5.00.

As for `O=C(O)CCCN1C(=O)c2cccc3c([N+](=O)[O-])ccc(c23)C1=O` [Compound 35G], the negative-log IC50 (pIC50) in assay [3] (setting [4]) was 4.54 to 5.00.

For the compound `O=C(O)c1cccc(N2C(=O)c3cc(-n4cccc4)cc4cc(-n5cccc5)cc(c34)C2=O)c1` [Compound 21G], in assay [3] (setting [5]), the pIC50 was less than 4.30.

Take `O=C(O)CCCN1C(=O)c2ccc(-c3ccc4c(c3)C(=O)N(CCCC(=O)O)C4=O)cc2C1=O` [Compound 1C]: in assay [1], the pIC50 was 5.30 to 7.00.

Take `O=C(O)CCCN1C(=O)c2cccc3c(C(=O)O)ccc(c23)C1=O` [Compound 39G]: in assay [3] (setting [4]), the pIC50 is 4.54 to 5.00.

For the compound `O=C(O)CCCN1C(=O)c2cccc3cc(C(=O)O)cc(c23)C1=O` [Compound 33G], the pIC50 in assay [3] (setting [4]) was 4.54 to 5.00.

Turning to `O=C(O)c1ccc(Cl)c(N2C(=O)c3cccc([N+](=O)[O-])c3C2=O)c1` [Compound 18], the negative logarithm of the IC50 (pIC50) in assay [3] (setting [6]) is less than 4.30.

As for `O=C(O)c1ccc2c(c1)C(=O)N(c1cc(C(=O)O)ccc1Cl)C2=O` [Compound 6], the pIC50 in assay [3] (setting [6]) is less than 4.30.

Regarding `NC(=O)c1cc2c3c(cccc3c1)C(=O)N(CCCC(=O)O)C2=O` [Compound 30G], the negative logarithm of the IC50 (pIC50) in assay [3] (setting [4]) was 4.54 to 5.00.

With `O=C(O)CCCN1C(=O)c2ccc(C(=O)O)cc2C1=O` [Compound 1], the pIC50 in assay [3] (setting [6]) is less than 4.30.

Regarding `CC(C)Nc1cc2c3c(cc(NC(C)C)cc3c1)C(=O)N(CCCC(=O)O)C2=O` [Compound 16G], the negative-log IC50 (pIC50) in assay [3] (setting [5]) is 4.54 to 5.00.

As to `N#Cc1cc2c3c(cccc3c1)C(=O)N(CCCC(=O)O)C2=O` [Compound 32G], the negative-log IC50 (pIC50) in assay [3] (setting [8]) was more than 5.00; in assay [3] (setting [9]) it was more than 5.00; in assay [3] (setting [4]), more than 5.00; in assay [1], 4.82 to 5.30; in assay [2], 4.82 to 5.30.

As for `O=C(O)c1ccc2c(c1)C(=O)N(CCN1C(=O)c3ccc(C(=O)O)cc3C1=O)C2=O` [Compound 41C], the pIC50 in assay [3] (Table E (Formula IIIA), NGF binding, PC12 cells, read-out: IC50) was more than 5.00.

As to `O=C(O)c1cccc(N2Cc3cc(C(=O)O)ccc3C2=O)c1` [Compound 12A, 2-(3-Carboxyphenyl)-1-oxoisoindoline-5-carboxylic acid], the negative logarithm of the IC50 (pIC50) in assay [3] (setting [9]) is 4.54 to 5.00; in assay [3] (setting [7]) it was 4.54 to 5.00; in assay [2], 4.82 to 5.30.

As for `CN(C)c1cc2c3c(cc(N(C)C)cc3c1)C(=O)N(CCCC(=O)O)C2=O` [Compound 15G], the negative-log IC50 (pIC50) in assay [3] (setting [5]) was 4.30 to 4.52.

In the case of `CN(C)S(=O)(=O)c1cc2c3c(cccc3c1)C(=O)N(CCCC(=O)O)C2=O` [Compound 31G], the pIC50 in assay [3] (setting [4]) was less than 4.30.

The compound `O=C(O)CCCCCCN1C(=O)c2ccc(-c3ccc4c(c3)C(=O)N(CCCCCCC(=O)O)C4=O)cc2C1=O` [Compound 21C] had a negative logarithm of the IC50 (pIC50) in assay [1] of 4.82 to 5.30.

`O=C(O)CCCN1C(=O)c2cc(C(=O)O)cc3cc([N+](=O)[O-])cc(c23)C1=O` [Compound 17G, 2-(3-Carboxypropyl)-8-nitro-1,3-dioxo-2,3-dihydro-1H-benzo[de]isoquinoline-5-carboxylic acid]: in assay [3] (setting [5]), the pIC50 was more than 5.00.

As for `O=C(O)CCCCN1C(=O)c2ccc(C(=O)O)cc2C1=O` [Compound 2], the pIC50 in assay [3] (setting [6]) was less than 4.30.

`O=C(O)CCCN1C(=O)c2cccc3c(Br)ccc(c23)C1=O` [Compound 36G]: the negative-log IC50 (pIC50) in assay [3] (setting [4]) is 4.30 to 4.52.

For `O=C(O)CCCN1C(=O)c2cccc3cc(-c4nnn[nH]4)cc(c23)C1=O` [Compound 46G], the pIC50 in assay [1] and in assay [2] was 4.82 to 5.30 each time.
